For assay [1], the system named is N1MA1a (DNA, aptamer) GACGACACATAATTGTTGATCCACTGTTTATTAGGTGTCGTC
The assay is described as follows: ITC. To be noted: 500 mM Na+, 20 mM Mg2+; 50 mM Tris, pH 7.6, 25 °C; abstract prints 0.75 ± 0.04.

The test system of assay [2] is N1MA2a (DNA, aptamer) GACGACAAGGTTGCTGGTCTGGTACAGAGATAGTTCGTCGTC
The assay is described as follows: ITC. To be noted: 500 mM Na+, 20 mM Mg2+; 50 mM Tris, pH 7.6, 25 °C.

For assay [3], the system named is AdeApt (classical adenosine aptamer) (DNA, aptamer) ACCTGGGGGAGTATTGCGGAGGAAGGT
The assay is described as follows: ThT fluorescence displacement. To be noted: 500 mM Na+, 20 mM Mg2+; Kd could not be fitted; 50 mM Tris, pH 7.6; ThT tracer.

For orientation: Kd means the concentration at which binding is half-saturated. Higher therefore signals weaker binding. As to `Cn1cnc2c(ncn2[C@@H]2O[C@H](CO)[C@@H](O)[C@H]2O)c1=N`, the Kd in assay [1] is reported as 0.75 ± 0.07 µM; in assay [2], 7.3 ± 7.5 µM. In addition, the binding result in assay [3] is given as “weak”.

The values above are taken from publication PMC12080312 (2025).
